Drawing on US8722711B2, “Acylbenzene derivative” (Daiichi Sankyo Company, Limited, priority 2010, dated 2014), this text covers inhibition in vivo for 19 compounds.

Bounds are passed on as bounds.

In this experiment the test system is Male C57/BL6J mice. The experiment in a line: Mouse oGTT (Oral Glucose Tolerance Test). The experiment is classed as in vivo. The note with it: 2 h, fasted 16 to 17 hours, compound 10 mg/kg orally 30 minutes before oral glucose load, AUC from 5 minutes before to 120 minutes after glucose, read-out: percentage decrease in plasma glucose AUC (%) compared with the negative control group. How it is done:
Mouse oGTT (Oral Glucose Tolerance Test)
A dosing preparation (1 mg/mL of each compound) was produced by suspending in a 0.5 w/v % methyl cellulose solution and then grinding in an agate mortar. Male C57/BL6J mice (Charles River Laboratories Japan, Inc.) were purchased at 6 to 8 weeks of age, and then used at 9 to 13 weeks of age. The mice were fasted from the hours of 17:00 to 18:00 on one day before the test day, and the test was started after 16 to 17 hours-fasting. Five mice were used for each group. Before dosing a compound, blood was collected from the tail vein. Thereafter, a suspension of the compound was orally administered at a dosage of 10 mg/kg. The 0.5 w/v % methyl cellulose solution was administered to a negative control group. Twenty five minutes after dosing the compound, blood was collected from the tail vein, and then thirty minutes after dosing the compound, 30 w/v % glucose solution was orally administered at a volume of 10 mL/kg. Blood was collected from the tail vein 15, 30, 60 and 120 minutes after the glucose administration. Each of the blood samples was centrifuged to obtain the plasma, and the plasma glucose level (mg/dL) was measured with a glucose analyzer (Glucoloader GXT, A&T Corp.). The plasma glucose AUC (mg/dL min) in each mouse was calculated using the plasma glucose values at 5 minutes before and 15, 30, 60 and 120 minutes after the glucose administration. The arithmetic mean of the AUC value was calculated for each group and the percentage decrease in plasma glucose AUC (%) compared with the negative control group was calculated as an index of the efficacy.

With `CC[C@@H](Oc1ccc(C(=O)C2CCC2)cc1)c1nc(-c2ccc(C(=O)NC(CO)CO)c(F)c2)no1` [Example 13, 4-(5-{(1R)-1-[4-(Cyclobutylcarbonyl)phenoxy]propyl}-1,2,4-oxadiazol-3-yl)-2-fluoro-N-[2-hydroxy-1-(hydroxymethyl)ethyl]benzamide], the inhibition in vivo at 10 mg/kg is 5 to 20%.
Next, `CC[C@@H](Oc1ccc(C(=O)C2CC2)cc1)c1nc(-c2ccc(C(=O)NC[C@@H](O)CO)c(F)c2)no1` [Example 5, 4-(5-{(1R)-1-[4-(Cyclopropylcarbonyl)phenoxy]propyl}-1,2,4-oxadiazol-3-yl)-N-[(2R)-2,3-dihydroxypropyl]-2-fluorobenzamide]: 5 to 20%; `CC[C@@H](Oc1ccc(C(=O)C(C)(C)C)cc1)c1nc(-c2ccc(C(=O)NC(CO)CO)c(F)c2)no1` [Example 12, 4-(5-{(1R)-1-[4-(2,2-Dimethylpropanoyl)phenoxy]propyl}-1,2,4-oxadiazol-3-yl)-2-fluoro-N-[2-hydroxy-1-(hydroxymethyl)ethyl]benzamide]: 5 to 20%; `CC[C@@H](Oc1ccc(C(=O)C2CC2)cc1)c1nc(-c2ccc(C(=O)N[C@H](C)[C@@H](O)CO)c(F)c2)no1` [Example 19, 4-(5-{(1R)-1-[4-(Cyclopropylcarbonyl)phenoxy]propyl}-1,2,4-oxadiazol-3-yl)-N-[(1R,2R)-2,3-dihydroxy-1-methylpropyl]-2-fluorobenzamide]: 5 to 20%.
For the compound `CC[C@@H](Oc1ccc(C(=O)C2CC2)cc1)c1nc(-c2ccc(C(=O)N[C@@H](C)CO)c(F)c2)no1` [Example 4, 4-(5-{(1R)-1-[4-(Cyclopropylcarbonyl)phenoxy]propyl}-1,2,4-oxadiazol-3-yl)-2-fluoro-N-[(1S)-2-hydroxy-1-methylethyl]benzamide], the inhibition in vivo at 10 mg/kg was 5 to 20%.
Turning to `CC[C@@H](Oc1ccc(C(=O)C2CC2)cc1)c1nc(-c2ccc(C(=O)N[C@@H](CO)C(N)=O)c(F)c2)no1` [Example 2, N-[(1S)-2-Amino-1-(hydroxymethyl)-2-oxoethyl]-4-(5-{(1R)-1-[4-(cyclopropylcarbonyl)phenoxy]propyl}-1,2,4-oxadiazol-3-yl)-2-fluorobenzamide], the inhibition in vivo at 10 mg/kg was over 20%.
On to `CC[C@@H](Oc1ccc(C(=O)C2CC2)cc1)c1nc(-c2ccc(C(=O)N[C@H](CO)CCO)c(F)c2)no1` [Example 17, 4-(5-{(1R)-1-[4-(Cyclopropylcarbonyl)phenoxy]propyl}-1,2,4-oxadiazol-3-yl)-2-fluoro-N-[(1S)-3-hydroxy-1-(hydroxymethyl)propyl]benzamide], for which the inhibition in vivo at 10 mg/kg lay within 5 to 20%.
Next, `CC[C@@H](Oc1ccc(C(=O)C(C)C)cc1)c1nc(-c2ccc(C(=O)NC(CO)CO)c(F)c2)no1` [Example 16, 2-Fluoro-N-[2-hydroxy-1-(hydroxymethyl)ethyl]-4-{5-[(1R)-1-(isobutyrylphenoxy)propyl]-1,2,4-oxadiazol-3-yl}benzamide]: 5 to 20%; `CC[C@@H](Oc1ccc(C(=O)C2CC2)cc1)c1nc(-c2ccc(C(=O)NC(CO)CO)c(F)c2)no1` [Example 6, 4-(5-{(1R)-1-[4-(Cyclopropylcarbonyl)phenoxy]propyl}-1,2,4-oxadiazol-3-yl)-2-fluoro-N-[2-hydroxy-1-(hydroxymethyl)ethyl]benzamide]: 5 to 20%.
In the case of `CC[C@@H](Oc1ccc(C(=O)C2(F)CC2)cc1)c1nc(-c2ccc(C(=O)NC(CO)CO)c(F)c2)no1` [Example 14, 2-Fluoro-4-{5-[(1R)-1-{4-[(1-fluorocyclopropyl)carbonyl]phenoxy}propyl]-1,2,4-oxadiazol-3-yl}-N-[2-hydroxy-1-(hydroxymethyl)ethyl]benzamide] it was 5 to 20%; in that of `C[C@@H](Oc1ccc(C(=O)C2CC2)cc1)c1nc(-c2ccc(C(=O)NC(CO)CO)c(F)c2)no1` [Example 7, 4-(5-{(1R)-1-[4-(Cyclopropylcarbonyl)phenoxy]ethyl}-1,2,4-oxadiazol-3-yl)-2-fluoro-N-[2-hydroxy-1-(hydroxymethyl)ethyl]benzamide], over 20%; in that of `CC[C@@H](Oc1ccc(C(=O)C2CC2)cc1)c1nc(-c2ccc(C(=O)NC[C@H](O)CO)c(F)c2)no1` [Example 1, 4-(5-{(1R)-1-[4-(Cyclopropylcarbonyl)phenoxy]propyl}-1,2,4-oxadiazol-3-yl)-N-[(2S)-2,3-dihydroxypropyl]-2-fluorobenzamide], over 20%.
Next, `C[C@@H](Oc1ccc(C(=O)C2CC2)cc1)c1nc(-c2ccc(C(=O)NC3CCCC3O)c(F)c2)no1` (stereo in doubt) [Example 11, 4-(5-{(1R)-1-[4-(Cyclopropylcarbonyl)phenoxy]ethyl}-1,2,4-oxadiazol-3-yl)-2-fluoro-N-[(1S,2S)-2-hydroxycyclopentyl]benzamide]: 5 to 20%.
Consider `CC[C@@H](Oc1ccc(C(=O)C2CC2)cc1)c1nc(-c2ccc(C(=O)N[C@H](C)CO)c(F)c2)no1` [Example 3, 4-(5-{(1R)-1-[4-(Cyclopropylcarbonyl)phenoxy]propyl}-1,2,4-oxadiazol-3-yl)-2-fluoro-N-[(1R)-2-hydroxy-1-methylethyl]benzamide], for which the inhibition in vivo at 10 mg/kg was 5 to 20%.
As for `C[C@@H](Oc1ccc(C(=O)C2CC2)cc1)c1nc(-c2ccc(C(=O)N[C@H](C)[C@@H](O)CO)c(F)c2)no1` [Example 23, 4-(5-{(1R)-1-[4-(Cyclopropylcarbonyl)phenoxy]ethyl}-1,2,4-oxadiazol-3-yl)-N-[(1R,2R)-2,3-dihydroxy-1-methylpropyl]-2-fluorobenzamide], the inhibition in vivo at 10 mg/kg was over 20%.
In the case of `CC[C@@H](Oc1ccc(C(=O)C(C)C)cc1)c1nc(-c2ccc(C(=O)N[C@H](C)CO)c(F)c2)no1` [Example 15, 2-Fluoro-N-[(1R)-2-hydroxy-1-methylethyl]-4-{5-[(1R)-1-(4-isobutyrylphenoxy)propyl]-1,2,4-oxadiazol-3-yl}benzamide] it was 5 to 20%; in that of `C[C@@H](CO)NC(=O)c1ccc(-c2noc([C@@H](C)Oc3ccc(C(=O)C4CC4)cc3)n2)cc1F` [Example 8, 4-(5-{(1R)-1-[4-(Cyclopropylcarbonyl)phenoxy]ethyl}-1,2,4-oxadiazol-3-yl)-2-fluoro-N-[(1S)-2-hydroxy-1-methylethyl]benzamide], 5 to 20%.
Consider `C[C@@H](Oc1ccc(C(=O)C2CC2)cc1)c1nc(-c2ccc(C(=O)NC3CCCC3O)c(F)c2)no1` (stereo in doubt) [Example 9, 4-(5-{(1R)-1-[4-(Cyclopropylcarbonyl)phenoxy]ethyl}-1,2,4-oxadiazol-3-yl)-2-fluoro-N-[(1R,2R)-2-hydroxycyclopentyl]benzamide], for which the inhibition in vivo at 10 mg/kg was in the range of 5 to 20%.
In the case of `C[C@H](CO)NC(=O)c1ccc(-c2noc([C@@H](C)Oc3ccc(C(=O)C4CC4)cc3)n2)cc1F` [Example 10, 4-(5-{(1R)-1-[4-(Cyclopropylcarbonyl)phenoxy]ethyl}-1,2,4-oxadiazol-3-yl)-2-fluoro-N-[(1R)-2-hydroxy-1-methylethyl]benzamide] it was 5 to 20%.
